Measured values reported in patent publication US20120052122A1, “Treatment Of Chronic Obstructive Pulmonary Disease With Phosphodiesterase-4 Inhibitor” (Nycomed GmbH, priority 2010, published 2012).
Where two headings read alike, the source gives them in different places.

Columns and labels:
[1] = tested on: patients with COPD and chronic cough and sputum production
[2] = tested on: B6C3F1 mice; assay: Two year carcinogenicity study in B6C3F1 mice; format: in vivo, mouse; details: gavage up to 12 mg/kg/day (males), 18 mg/kg/day (females), two years
Procedure: No other treatment-related neoplastic findings were observed. Overall, the tumor-free level in the animals was 4 mg/kg/day.

[3] = Pharmacokinetics in special populations (total PDE4 inhibitory activity); details: in vivo
[4] = Excretion into milk of lactating rats; format: in vivo, rat; details: roflumilast and/or its metabolites
Text: Excretion of roflumilast and/or metabolites into human milk is probable. Roflumilast should not be used during breast-feeding.

[5] = Standard battery of genotoxicity assays in vitro and in vivo
[6] = tested on: patients with COPD and chronic cough and sputum production; remark: listed apart in the source
Text: Their postbronchodilator FEV1 was 50% or less than the predicted value.
Patients could use short acting β2 agonists as needed and could continue treatment with long acting β2 agonists or short acting anti-cholinergic drugs at stable doses. However, inhaled corticosteroids and long acting anti-cholinergic drugs were not allowed during the study. Eligible patients were stratified according to their use of long acting β2 agonists and smoking status.
The primary endpoints were the change in prebronchodilator FEV1 during treatment and the rate of COPD exacerbations, defined as moderate if they required treatment with oral or parenteral corticosteroids, or severe if they were associated with hospital admission or death. […] Additionally, data for the total number of COPD exacerbations (as defined above together with episodes treated with antibiotics alone) and a range of spirometric outcomes were gathered.
A negative binominal regression analysis was done to assess the robustness of the results against the distributional assumptions. Data were analyzed in the two studies separately and in a pooled analysis. Changes were analyzed from baseline in prebronchodilator and postbronchodilator FEV1 using a repeated-measures analysis of covariance with all data available for patients during the 52-week treatment. (Reference 18) A Cox proportional hazard model was used to test for differences in time-to-event data. For analysis of the concentrations of C-reactive protein, an analysis of covariance model was used, with the method of the last observation carried forward for the log-transformed data for concentrations. For the regression models (analysis of covariance, Cox, and Poisson), the covariates included treatment, age, sex, smoking status (current or former smoker), country, and treatment with long acting β2 agonists. In the Cox analysis, country was included as a stratum. In the Poisson regression analysis, baseline postbronchodilator FEV1 (% of predicted value) was also included as a covariate. To address the issue of multiple comparisons, a hierarchical hypothesis-testing approach was adopted, If the primary outcomes were positive, the key secondary outcomes were tested in the order above. If a significant difference between treatments was not obtained for the primary or key secondary outcomes, all subsequent analyses were considered exploratory.
In the one-year trials, long-acting beta-2 agonists (LABA) were allowed and used in approximately 50% of the study population. The use of inhaled corticosteroids was terminated at randomization. Lung function (pre-bronchodilator forced expiratory volume in one second, FEV1) and the rate of moderate exacerbations (requiring intervention with systemic glucocorticosteroids) or severe exacerbations (resulting in hospitalization and/or leading to death) were primary endpoints. Secondary endpoints in both studies included further evaluation of exacerbations and lung function parameters, dyspnea, and use of reliever medication.

[7] = tested on: human airway epithelial cells; assay: MUC5AC formation; details: human airway epithelial cells and animal experiments
[8] = M2-124 and M2-125 pooled, 52 weeks
[9] = M2-124 and M2-125 pooled, 52 weeks, mean
[10] = M2-124 and M2-125 pooled, 52 weeks, mean (SE)
[11] = M2-124 and M2-125 pooled, Roflumilast vs Placebo
[12] = M2-124 and M2-125 pooled, Roflumilast vs Placebo, listed as roflumilast

For `O=C(Nc1c(Cl)cncc1Cl)c1ccc(OC(F)F)c(OCC2CC2)c1` [Roflumilast, N-(3,5-dichloropyridin-4-yl)-3-cyclopropylmethoxy-4-difluoromethoxy-benzamide], the “Change in prebronchodillator FVC, difference” value ([1]; M2-124, Roflumilast vs Placebo) was “Difference 89 (51 mL”, the “EQ-5D total score, difference” value ([1]; M2-124, Roflumilast vs Placebo) was “Difference −0.0047” and the “TDI focal score, difference” value ([1]; M2-124, Roflumilast vs Placebo) was “Difference 0.2”. The “Change in prebronchodillator FVC, difference” value ([1]; M2-124, Roflumilast vs Placebo, listed as roflumilast) was 89 mL, the EQ-5D total score ([1]; M2-124, mean) was 0.0049 and the TDI focal score ([1]; M2-124, mean (SE)) was 0.7 (0.1);. The “Adverse event Influenza, patients” value ([1]; M2-124, n = 769) was 27 (4%) number (%), the “Adverse event Upper respiratory tract infection, patients” value ([1]; M2-124, n = 769) was 16 (2%) number (%) and the “Adverse event Upper respiratory tract infection, difference” value ([1]; human, in vivo, 52 weeks) was −0.70% (−2.38 to 0.98). For the same compound, the Tumors [2] was “No compound-related tumors”, the “Total PDE4 inhibitory activity in smokers” value [3] was “slightly decreased” and the “Total PDE4 inhibitory activity in the elderly” value [3] was “increased”. The “Total PDE4 inhibitory activity in women compared with men” value [3] was “increased”, the Excretion into milk [4] was “excreted into the milk” and the Genotoxic potential [5] was “did not reveal a genotoxic potential”. For the same compound, the “Change in C-reactive protein from baseline to last postrandomisation visit” value ([6]; M2-124 and M2-125 pooled) was 1.1; n = 1371 mg/L, the “Median time to first exacerbation (moderate or severe) [IQR]” value ([6]; M2-124 and M2-125 pooled) was 80.0 (28.0-190.0) days and the “Median time to second exacerbation (moderate or severe) [IQR]” value ([6]; M2-124 and M2-125 pooled) was 177.0 (92.0-262.0) days. The “Time to mortality (mean, SD)” value ([6]; M2-124 and M2-125 pooled) was 206.1 days, the “Exacerbations moderate or severe, mean rate [95% CI]” value [6, 8] was 1.14 (1.05-1.24); per patient, per year and the “Exacerbations moderate, mean rate [95% CI]” value [6, 8] was 0.99 (0.91-1.08); per patient, per year. For the same compound, the “Exacerbations severe, mean rate [95% CI]” value [6, 8] was 0.12 (0.10-0.16); per patient, per year, the “Exacerbations treated with systemic corticosteroids, antibiotics, or both, mean rate [95% CI]” value [6, 8] was 1.13 (1.04-1.23); per patient, per year and the “Change in postbronchodillator FEV1/FVC” value [6, 9] was 0.517%. The “Change in prebronchodillator FEV1/FVC” value [6, 9] was 0.247%, the “Change in postbronchodillator FEF25-75” value [6, 10] was 21 (4); mL/s and the “Change in postbronchodillator FEV1” value [6, 10] was 50 (6); mL. For the same compound, the “Change in postbronchodillator FVC” value [6, 10] was 67 (10); mL, the “Change in postbronchodillator PEF” value [6, 10] was 4.93 (1.05); L/min and the “Change in prebronchodillator FEF25-75” value [6, 10] was 16 (4); mL/s. The “Change in prebronchodillator FEV1” value [6, 10] was 40 (6); mL, the “Change in prebronchodillator FVC” value [6, 10] was 64 (10); mL and the “Change in prebronchodillator PEF” value [6, 10] was 3.69 (1.02); L/min. For the same compound, the “Change in C-reactive protein from baseline to last postrandomisation visit, difference” value [6, 11] was “Difference 1.0 mg/L”, the “Change in postbronchodillator FEF25-75, difference” value [6, 11] was “Difference 19 mL/s” and the “Change in postbronchodillator FEV1, difference” value [6, 11] was “Difference 55 mL”. The “Change in postbronchodillator FEV1/FVC, difference” value [6, 11] was “Difference 0.426%”, the “Change in postbronchodillator FVC, difference” value [6, 11] was “Difference 101 mL” and the “Change in postbronchodillator PEF, difference” value [6, 11] was “Difference 4.72 L/min”. For the same compound, the “Change in prebronchodillator FEF25-75, difference” value [6, 11] was “Difference 20 mL/s”, the “Change in prebronchodillator FEV1, difference” value [6, 11] was “Difference 48 mL” and the “Change in prebronchodillator FEV1/FVC, difference” value [6, 11] was “Difference 0.393%”. For the same compound, the “Change in prebronchodillator FVC, difference” value [6, 11] was “Difference 98 mL”, the “Change in prebronchodillator PEF, difference” value [6, 11] was “Difference 3.53 L/min” and the “EQ-5D total score, difference” value [6, 11] was 0.0023. The “TDI focal score, difference” value [6, 11] was “Difference 0.3”, the “Change in postbronchodillator FEV1, difference” value [6, 12] was 55 mL and the “Change in prebronchodillator FEV1, difference” value [6, 12] was 48 mL. For the same compound, the “TDI focal score, difference” value [6, 12] was 0.25, the EQ-5D total score ([6]; M2-124 and M2-125 pooled, mean) was 0.0072 and the TDI focal score ([6]; M2-124 and M2-125 pooled, mean (SE)) was 0.7 (0.1);. The “Probability of withdrawal due to adverse events in the first 12 weeks” value ([6]; human, in vivo) was 8%, the “Subsequent probability of withdrawal because of adverse events” value ([6]; human, in vivo) was 9% and the “Adverse events reported, patients” value ([6]; human, in vivo, 52 weeks) was 1040 (67%) number (%). For the same compound, the “Atrial fibrillation, patients” value ([6]; human, in vivo, 52 weeks) was 17 (1%) number (%), the “Discontinuations associated with adverse events” value ([6]; human, in vivo, 52 weeks) was 219 [14%] number [%] and the “Reported cardiovascular adverse events” value ([6]; human, in vivo, 52 weeks) was 108 [7%] number [%]. For the same compound, the “Serious adverse events reported, patients” value ([6]; human, in vivo, 52 weeks) was 301 (19%) number (%), the “Vomiting, patients” value ([6]; human, in vivo, 52 weeks) was 17 (1%) number (%) and the “Incidence of pneumonia or other pulmonary infections” value ([6]; in vivo) was “did not increase”. The “Mean absolute weight change over the 1-year period” value ([6]; in vivo) was -2.1 kg, the “Neurological or cardiac toxicity” value ([6]; in vivo) was “No significant neurological or cardiac toxicity” and the “Patients with a decrease of body weight” value ([6]; in vivo) was 62%. The “Weight loss in patients not reporting diarrhea, nausea, vomiting, or headache” value ([6]; in vivo) was 2.02 kg, the “Weight loss in patients reporting diarrhea, nausea, vomiting, or headache” value ([6]; in vivo) was 2.60 kg and the “Number of patients experiencing a moderate exacerbation” value ([6]; pooled) was 624. The “Number of patients experiencing a severe exacerbation” value ([6]; pooled) was 157, the “Estimated rate of moderate or severe exacerbations per patient per year, lower than placebo” value ([6]; pooled analysis) was 17% and the “Exacerbations (excluding severe events) requiring systemic corticosteroids or antibiotics, or both, reduction vs placebo” value ([6]; pooled analysis) was 16%. For the same compound, the “Mean prebronchodilator FEV1 increase with long acting β2 agonist” value ([6]; pooled, compared to placebo, concomitant LABA) was 46 mL, the “Mean prebronchodilator FEV1 increase without long acting β2 agonist” value ([6]; pooled, compared to placebo, no concomitant LABA) was 50 mL and the “Formation of MUC5AC” value [7] was “inhibited”.
